This note sets out measurements from patent US10744150B2, “Cyclic dinucleotides as anticancer agents” (BRISTOL-MYERS SQUIBB COMPANY, priority 2017, dated 2020).

What is called IC50 is the concentration at which inhibition is half-maximal. What is called EC50 is the midpoint of the concentration-response curve.

For assay [1], the target named is T1, STING WT: His-TVMV-S-hSTING(155-341)-H232R (Homo sapiens, UniProt Q86WV6, H232R).
T1 construct: His-TVMV-S-hSTING(155-341)-H232R
Kind of assay: STING HTRF binding assay (time resolved FRET competition), STING WT. To be noted: 20 nM His-tagged STING cytoplasmic domain, 200 nM fluorescein-labeled cGAMP analog probe, one hour; read-out: HTRF Binding Assays IC50 STING WT. Here is the method: (§1) A time resolved FRET-based competition binding assay was used to assess test article binding to STING WT and STING AQ. His-tagged STING cytoplasmic domain (WT or AQ) at a concentration of 20 nM was incubated with 2.5 nM Tb-labeled anti-His antibody, test compound, and fluorescein-labeled cGAMP analog probe (BioLog cat. no. C195) at a concentration of 200 nM (STING WT) or 40 nM (STING AQ) in PBS containing 0.005% Tween-20 and 0.1% BSA for one hour. Fluorescence at 495 nm and 520 nm was measured using an EnVision microplate reader to quantify FRET between Tb-labeled anti-His antibody and fluorescein-labeled probe. Background was defined as the signal obtained in the absence of STING protein, and background subtracted FRET ratios were normalized to the maximum signal obtained in the absence of test compound. These values were converted to a percent inhibition. Percent inhibition was determined for test compounds at 11 concentrations. The IC50, defined as the concentration of competing test compound needed to reduce specific binding of the probe by 50%, was calculated using the 4 parameter logistic equation to fit the data

A further assay relates to NFkB. Kind of assay: STING THP1 reporter assay, NF-κB pathway (SEAP, QUANTI-Blue). To be noted: THP1-Dual cells, 10% human plasma, 100% activation = 100 μM cGAMP. It counts as cell-based. The source says: (§2) THP1-Dual™ cells were derived from the human THP-1 monocyte cell line by stable integration of two inducible reporter constructs. To this end, THP1-Dual™ cells allow the simultaneous study of the NF-κB pathway, by monitoring the activity of SEAP, and the IRF pathway by assessing the activity of a secreted luciferase (Lucia). Both reporter proteins are readily measurable in the cell culture supernatant when using QUANTI-Blue™, a SEAP detection reagent, and QUANTI-Luc™, a luciferase detection reagent.
(§3) THP1-Dual™ cells induce the activation of NF-κB in response to STING agonists. They also trigger the IRF pathway upon stimulation with STING agonists, such as cGAMP. Here, the THP-1-Dual cells were used to assess STING binders for function on the cellular level.
(§4) Serial dilutions of compounds in DMSO were added to low volume 384 well plates at 100 nl/well using an ECHO acoustic dispenser (Labcyte, model 550) to achieve final starting concentration of 100 μM in cell suspension. THP-1 Dual™ STING reporter cells (Invivogen, Dual cells cat # THPD-nfis) were added to the plates with compounds at 15,000 cells in 10 μL per well in RPMI media (Gibco, cat #11875) containing 10% human plasma in a low volume 384-well black wall clear bottom tissue culture plate (Corning, cat #3542) for SEAP assay and low volume solid white plate (Corning, cat #3826) for luciferase assay. One column of the plate was reserved for treatment with cGAMP at 100 μM for 100% activation calculation and one column for no treatment (DMSO only) for baseline activation. Plates were then incubated in 37° C. incubator at 5% CO2 for 20 hours.
(§5) In the SEAP assay, 5 μl of 2× QuantiBlue (Invivogen, cat # Rep-qb2) is added to 384 well black plates seeded with THP1 cells and incubated at 37° C. for 2 hours. Plates were read on the Envision (Perkin Elmer) at 620 nm wavelength (OD620). In the luciferase assay, 5 μl of Quantiluc (Invivogen, Rep-qlc2) is added to white 384 well plates seeded with THP1 cells and read at 5 minutes on the Envision (Perkin Elmer) using a luminescence protocol (RLU). For both cell lines, 100% activation was determined by value (RLU) of THP-1 Dual STING cells stimulated with 100 μM cGAMP (Invivogen, cat # TLRL-NACGA23-5).
(In general: In a reporter assay the amount or activity of a reporter protein is the signal.)

A further assay deals with IRF3. As to the kind of experiment: STING THP1 reporter assay, IRF pathway (secreted luciferase Lucia, QUANTI-Luc). It counts as cell-based. To be noted: THP1-Dual cells, 10% human plasma, 100% activation = 100 μM cGAMP, luciferase readout, read-out: THP1 Reporter Assays EC50 IRF3.
Description: as §2, §3, §4, §5

The target in assay [2] is T2, STING AQ: His-TVMV-S-hSTING(155-341)-G230A-R293Q (Homo sapiens, UniProt Q86WV6, G230A/H232R/R293Q).
T2 construct: His-TVMV-S-hSTING(155-341)-G230A-R293Q
T2 sequence (Q86WV6 with tags, fused parts or gaps G230A/H232R/R293Q): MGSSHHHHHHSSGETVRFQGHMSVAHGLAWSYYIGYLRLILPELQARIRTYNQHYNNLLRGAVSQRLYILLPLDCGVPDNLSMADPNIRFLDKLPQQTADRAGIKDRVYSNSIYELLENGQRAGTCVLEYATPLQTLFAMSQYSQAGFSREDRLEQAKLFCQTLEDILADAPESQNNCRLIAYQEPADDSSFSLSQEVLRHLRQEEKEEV
As to the kind of experiment: STING HTRF binding assay (time resolved FRET competition), STING AQ. The note with it: 20 nM His-tagged STING cytoplasmic domain, 40 nM fluorescein-labeled cGAMP analog probe, one hour; read-out: HTRF Binding Assays IC50 STING AQ. Here is the method: as §1
On the technique in general: Time-resolved FRET reads energy transfer from a long-lived donor to a nearby acceptor.

The mark [3] stands for this setting: 20 hours, SEAP readout OD620, read-out: THP1 Reporter Assays EC50 NFkB.
Setting [4] is: Homo sapiens, THP-1, 20 h, SEAP readout OD620, read-out: THP1 Reporter Assays EC50 NFkB.

Where two headings read alike, the source gives them in different places.

T1 sequence (Q86WV6 with tags, fused parts or gaps H232R): as the sequence (Q86WV6 with tags, fused parts or gaps G230A/H232R/R293Q) above, with A99G, Q162R counted along it

As for `Nc1ncnc2c1ncn2[C@@H]1O[C@@H]2COP(O)(=S)OC[C@@H]3[C@@H](COP(O)(=S)O[C@H]2[C@H]1F)C[C@H]3n1cnc2c(=O)[nH]cnc21` (single isomer, unassigned) [Example 5-4], the IC50 in assay [1] was determined as 0.12 µM; in assay [2] it was 0.01 µM. Besides, the figures for the EC50 in the assay with NFkB (setting [3]) and in the assay on IRF3 (20 hours) were 91 µM and 12 µM, respectively.

With `Nc1ncnc2c1ncn2[C@@H]1C[C@@H]2COP(O)(=S)O[C@H]3C[C@H](n4ccc5c(Cl)ncnc54)O[C@@H]3COP(=O)(S)OC[C@H]21` (single isomer, unassigned) [Example 6-1], the results for the IC50 in assay [1] and in assay [2] were above 100 µM and 38.9 µM, respectively. Moreover, the EC50 in the assay with NFkB (setting [4]) was above 100 µM; with IRF3 (Homo sapiens, THP-1, 20 h), above 100 µM.

On to `Nc1ncnc2c1ncn2[C@@H]1C[C@@H]2COP(O)(=S)O[C@H]3[C@H](F)[C@H](n4ccc5c(Cl)ncnc54)O[C@@H]3COP(O)(=S)OC[C@H]21` (single isomer, unassigned) [Example 7-1], for which the results for the concentration for half-maximal inhibition (IC50) in assay [1] and in assay [2] were above 100 µM and 32.7 µM, respectively. Further, the 50% effective concentration (EC50) in the assay on NFkB (setting [4]) is above 100 µM; with IRF3 (Homo sapiens, THP-1, 20 h), above 100 µM.

`Nc1ncnc2c1ncn2[C@@H]1C[C@@H]2COP(O)(=S)O[C@H]3[C@H](F)[C@H](n4ccc5c(Cl)ncnc54)O[C@@H]3COP(O)(=S)OC[C@H]21` (single isomer, unassigned) [Example 7-3]: the results for the IC50 in assay [1] and in assay [2] were above 100 µM and 61.1 µM, respectively. In addition, the concentration for a half-maximal effect (EC50) in the assay with NFkB (setting [3]) and in the assay with IRF3 (20 hours) was above 100 µM in each case.

With `Nc1ncnc2c1ncn2[C@@H]1C[C@@H]2COP(O)(=S)O[C@H]3[C@H](F)[C@H](n4ccc5c(Cl)ncnc54)O[C@@H]3COP(O)(=S)OC[C@H]21` (single isomer, unassigned) [Example 7-4], the IC50 in assay [1] came to 49.1 µM; in assay [2], 6.3 µM. Further, the EC50 in the assay with NFkB (setting [3]) and in the assay with IRF3 (20 hours) was above 100 µM throughout.

`Nc1ncnc2c1ccn2[C@@H]1O[C@@H]2COP(O)(=S)OC[C@@H]3[C@@H](COP(O)(=S)O[C@H]2[C@@H]1F)C[C@H]3n1cnc2c(N)ncnc21` (single isomer, unassigned) [Example 8-2]: the figures for the IC50 in assay [1] and in assay [2] were 33 µM and above 100 µM, respectively. Also, the EC50 was 97 µM with NFkB (setting [3]) and above 100 µM in the assay with IRF3 (20 hours).

Regarding `Nc1ncnc2c1ccn2[C@@H]1O[C@@H]2COP(O)(=S)OC[C@@H]3[C@@H](COP(O)(=S)O[C@H]2[C@@H]1F)C[C@H]3n1cnc2c(N)ncnc21` (single isomer, unassigned) [Example 8-3], the IC50 in assay [1] and in assay [2] was above 100 µM each time. In addition, the concentration giving a half-maximal response (EC50) in the assay on NFkB (setting [3]) and in the assay with IRF3 (20 hours) was above 100 µM in each case.

For the molecule `Nc1ncnc2c1ccn2[C@@H]1O[C@@H]2COP(O)(=S)OC[C@@H]3[C@@H](COP(O)(=S)O[C@H]2[C@@H]1F)C[C@H]3n1cnc2c(N)ncnc21` (single isomer, unassigned) [Example 8-4], the IC50 in assay [1] is above 100 µM; in assay [2], 15.8 µM. The EC50 in the assay on NFkB (setting [3]) and in the assay with IRF3 (20 hours) was above 100 µM each time.

For the molecule `Nc1ncnc2c1ncn2[C@@H]1C[C@@H]2COP(O)(=S)O[C@H]3[C@@H](F)[C@H](n4cnc5c(=O)[nH]c6nccn6c54)O[C@@H]3COP(O)(=S)OC[C@H]21` (single isomer, unassigned) [Example 9-1], the results for the IC50 in assay [1] and in assay [2] were above 100 µM and 20 µM, respectively. The EC50 in the assay on NFkB (setting [4]) was above 100 µM; in the assay with IRF3 (Homo sapiens, THP-1, 20 h), above 100 µM.

On to `Nc1ncnc2c1ncn2[C@@H]1C[C@@H]2COP(O)(=S)O[C@H]3[C@@H](F)[C@H](n4cnc5c(=O)[nH]c6nccn6c54)O[C@@H]3COP(O)(=S)OC[C@H]21` (single isomer, unassigned) [Example 9-2], for which the IC50 in assay [1] is 4.3 µM; in assay [2], 0.92 µM. The EC50 with NFkB (setting [3]) and with IRF3 (20 hours) was above 100 µM in each case.

With `Nc1ncnc2c1ncn2[C@@H]1C[C@@H]2COP(O)(=S)O[C@H]3[C@@H](F)[C@H](n4cnc5c(=O)[nH]c6nccn6c54)O[C@@H]3COP(O)(=S)OC[C@H]21` (single isomer, unassigned) [Example 9-3], the IC50 in assay [1] was 9.1 µM; in assay [2], 0.35 µM. In addition, the concentration giving a half-maximal response (EC50) in the assay with NFkB (setting [3]) and in the assay on IRF3 (20 hours) was above 100 µM throughout.

As for `Nc1ncnc2c1ncn2[C@@H]1C[C@@H]2COP(O)(=S)O[C@H]3[C@@H](F)[C@H](n4cnc5c(=O)[nH]c6nccn6c54)O[C@@H]3COP(O)(=S)OC[C@H]21` (single isomer, unassigned) [Example 9-4], the IC50 in assay [1] came to 1.4 µM; in assay [2] it was 0.08 µM. Besides, the EC50 in the assay on NFkB (setting [3]) and in the assay on IRF3 (20 hours) was above 100 µM throughout.

Regarding `NC(=O)c1cccc2c1nnn2[C@@H]1O[C@@H]2COP(O)(=S)OC[C@@H]3[C@@H](COP(O)(=S)O[C@@H]1[C@@H]2F)C[C@H]3n1cnc2c(N)ncnc21` (single isomer, unassigned) [Example 11-1], the IC50 worked out at 20.5 µM in assay [1] and 3.1 µM in assay [2]. Moreover, the EC50 in the assay on NFkB (setting [4]) was above 100 µM; in the assay on IRF3 (Homo sapiens, THP-1, 20 h), above 100 µM.

As to `NC(=O)c1cccc2c1nnn2[C@@H]1O[C@@H]2COP(O)(=S)OC[C@@H]3[C@@H](COP(O)(=S)O[C@@H]1[C@@H]2F)C[C@H]3n1cnc2c(N)ncnc21` (single isomer, unassigned) [Example 11-2], the values for the IC50 in assay [1] and in assay [2] were 19.4 µM and 1.4 µM, respectively. In addition, the EC50 with NFkB (setting [3]) and with IRF3 (20 hours) was above 100 µM in each case.

Consider `NC(=O)c1cccc2c1nnn2[C@@H]1O[C@@H]2COP(O)(=S)OC[C@@H]3[C@@H](COP(O)(=S)O[C@@H]1[C@@H]2F)C[C@H]3n1cnc2c(N)ncnc21` (single isomer, unassigned) [Example 11-3], for which the IC50 is 0.82 µM in assay [1] and 0.11 µM in assay [2]. For the same molecule, the figures for the EC50 in the assay on NFkB (setting [3]) and with IRF3 (20 hours) were 51 µM and 70 µM, respectively.

On to `NC(=O)c1cccc2c1nnn2[C@@H]1O[C@@H]2COP(O)(=S)OC[C@@H]3[C@@H](COP(O)(=S)O[C@@H]1[C@@H]2F)C[C@H]3n1cnc2c(N)ncnc21` (single isomer, unassigned) [Example 11-4], for which the IC50 is 66.2 µM in assay [1] and 23.1 µM in assay [2]. Moreover, the EC50 in the assay on NFkB (setting [3]) and with IRF3 (20 hours) was above 100 µM each time.

In the case of `NC(=O)c1cccc2c1nnn2[C@@H]1O[C@@H]2COP(O)(=S)OC[C@@H]3[C@@H](COP(O)(=S)O[C@H]2[C@H]1F)C[C@H]3n1cnc2c(N)ncnc21` (single isomer, unassigned) [Example 12-1], the IC50 in assay [1] is 52.8 µM; in assay [2], 19.9 µM. Moreover, the EC50 in the assay on NFkB (setting [4]) was above 100 µM; in the assay on IRF3 (Homo sapiens, THP-1, 20 h), above 100 µM.
